Holding throughout (type): biochemical
One test concerns the target T1, OST3 complex (Saccharomyces cerevisiae, UniProt P39007).
T1 construct: were purified separately from strains expressing only one type of complex; made in house; host or cells: Saccharomyces cerevisiae, BY4742-derived strain ost6::LEU2MX6 OST4-1D4::kanMX6 YEp352-OST3
Put plainly: Synthetic LLO preferences, OST3 complex. Conditions: OST3 complex 0.09 μM, 25 μM TAMRA-YANATS, 50 μM LLO; n = 3. The procedure: (§1) Figure 5 OST3 complex turns over both glycosylation substrates faster than the OST6 complex, but with similar substrate affinities.A, enzyme activity of OST3 and OST6 complexes. Reactions were performed with 25 μM peptide TAMRA-YANATS, 50 μM LLO C20, and varying concentrations of purified OST3 complex (blue) or OST6 complex (red). Glycopeptide product was measured by UPLC and initial rates of reaction were determined by linear regression of the initial phase of the reaction. Turnover rates were determined by linear regression of the initial rates of reaction measured across the enzyme concentrations of 0.01–0.1 μM for OST3 complex and 0.1–0.5 μM for OST6 complex. Error bars indicate standard deviations from the mean of three reaction sets (n = 3). B, synthetic LLO preferences of OST3 and OST6 complexes. […] Turnover rates were determined by linear regression of the initial phase of the reaction and accounting for the enzyme concentration in the reaction. […] C, quantification of kinetic parameters for the synthetic LLO C20. […] Turnover rates were determined by linear regression of the initial phase of the reaction and accounting for the enzyme concentration in the reaction. […] D, quantification of kinetic parameters for the peptide TAMRA-YANATS. […] Turnover rates were determined by linear regression of the initial phase of the reaction and accounting for the enzyme concentration in the reaction. […]

Test [1] deals with T2, OST6 complex (Saccharomyces cerevisiae, UniProt P39007).
T2 construct: were purified separately from strains expressing only one type of complex; made in house; host or cells: Saccharomyces cerevisiae, BY4742-derived strain ost3::LEU2MX6 OST4-1D4::kanMX6 YEp352-OST6
Put plainly: Synthetic LLO preferences and OST activity comparison, OST6 complex. The conditions noted are these: OST6 complex 0.5 μM, 25 μM TAMRA-YANATS, 50 μM LLO; n = 3. As for the experimental part:
as §1

Test [2] addresses T2, OST6 complex. Put plainly: In vitro glycosylation assay, acceptor peptides, OST6 complex. Conditions: for OST6 complex activity compared with OST3 complex, in words: synthetic chitobiose-containing LLO, TAMRA-YANATS with 50 μM LLO C20 (Fig. 5A), TAMRA-DANYTK data not shown. As for the experimental part:
Figure 5 OST3 complex turns over both glycosylation substrates faster than the OST6 complex, but with similar substrate affinities.A, enzyme activity of OST3 and OST6 complexes. Reactions were performed with 25 μM peptide TAMRA-YANATS, 50 μM LLO C20, and varying concentrations of purified OST3 complex (blue) or OST6 complex (red). Glycopeptide product was measured by UPLC and initial rates of reaction were determined by linear regression of the initial phase of the reaction. Turnover rates were determined by linear regression of the initial rates of reaction measured across the enzyme concentrations of 0.01–0.1 μM for OST3 complex and 0.1–0.5 μM for OST6 complex. Error bars indicate standard deviations from the mean of three reaction sets (n = 3). B, synthetic LLO preferences of OST3 and OST6 complexes. Reactions were performed with 25 μM peptide TAMRA-YANATS, 50 μM of the indicated LLO (C15, C20, or C25) and 0.09 μM of purified OST3 complex (blue) or 0.5 μM OST6 complex (red). Turnover rates were determined by linear regression of the initial phase of the reaction and accounting for the enzyme concentration in the reaction. Error bars indicate standard deviations from the mean of three reactions (n = 3). C, quantification of kinetic parameters for the synthetic LLO C20. Reactions were performed with 25 μM peptide TAMRA-YANATS, varying concentrations of synthetic LLO C20, and either 0.1 μM purified OST3 complex (blue) or 0.5 μM OST6 complex (red). Turnover rates were determined by linear regression of the initial phase of the reaction and accounting for the enzyme concentration in the reaction. The mean of three reactions is shown and the data were fitted by nonlinear regression according to the Michaelis–Menten formula (R^2 = 0.9685 (OST3 complex), 0.9720 (OST6 complex)) using Prism. Error bars indicate standard deviations from the mean (n = 3). Asterisk indicates a data point not included in the Michaelis–Menten fitting, due to poor fitting. D, quantification of kinetic parameters for the peptide TAMRA-YANATS. Reactions were performed with 100 μM synthetic LLO C20, varying concentrations of peptide TAMRA-YANATS, and 0.1 μM purified OST3 complex (blue) or OST6 complex (red). Turnover rates were determined by linear regression of the initial phase of the reaction and accounting for the enzyme concentration in the reaction. The mean of three reactions is shown and the data were fitted by nonlinear regression according to the Michaelis–Menten formula (R^2 = 0.9794 (OST3 complex), 0.9214 (OST6 complex)) using Prism. Error bars indicate standard deviations from the mean (n = 3). Asterisk indicates data points not included in the Michaelis–Menten fitting, due to poor fitting. E, SDS-PAGE (14 % acrylamide) silver staining of 0.2 μg purified OST3 complex, OST6 complex, and OST3 complex purified from alg6Δ cells. Multiple bands of Ost1p and Wbp1p represent the fully and hypoglycosylated forms of the proteins. Ost4p is tagged with the 1D4 epitope for purification. F, enzyme activity of OST complexes. Reactions were performed with 100 μM peptide TAMRA-YANATS, 50 μM LLO C20, and varying concentrations from 0.1 to 0.3 μM of purified OST3 complex, OST6 complex, or OST3 complex purified from alg6Δ cells. Turnover rates were determined as in A by linear regression of the initial rates of reaction across the enzyme concentrations of 0.1–0.3 μM for each OST. Error bars indicate the standard deviation from the mean turnover rate of three reaction sets (n = 3).
TAMRA-labeled peptides with 5-TAMRA at the N-terminus and an amide group at the C-terminus were synthesized by WatsonBio Sciences. Unlabeled peptides (Table S1) were synthesized by Genscript Corp. and were designed so that the asparagine of the glycosylation sequon was in the middle (except for Peptide 8). Lyophilized peptides were dissolved in dimethyl sulfoxide (DMSO), unless specified otherwise, to a 3 mM stock solution and further diluted in ddH2O for reactions. […]

In the case of `CC(=O)N[C@H]1[C@@H](OP(=O)(O)OP(=O)(O)OC/C=C(\C)CC/C=C(\C)CCC=C(C)C)O[C@H](CO)[C@@H](O[C@@H]2O[C@H](CO)[C@@H](O)[C@H](O)[C@H]2NC(C)=O)[C@@H]1O` [LLO C15], the “turnover rate ranking among LLO analogs” value on OST3 complex and on OST6 complex [1] was “lowest reaction rates” each time.

With “TAMRA-DANYTK-NH2 [fluorescently labeled hexapeptide TAMRA-DANYTK-NH2 as the acceptor peptide, reference compound]”, the “OST6 complex activity compared with OST3 complex, in words” value on OST6 complex [2] was “reduced”.

For the molecule “TAMRA-YANATS [shorter version of Peptide 5 of only six amino acid residues (TAMRA-YANATS)]”, the kcat/KM on OST6 complex [2] (0.1 μM OST6 complex, 100 μM LLO C20) was 0.05 min^-1 μM^−s1. For the same molecule, the “kcat (apparent)” value on OST6 complex [2] (0.1 μM OST6 complex, 100 μM LLO C20, varying peptide, 30 °C, n = 3) worked out at 0.0383 ± 0.0033 s⁻¹. Moreover, on OST6 complex [2] (0.1 μM OST6 complex, 100 μM LLO C20, varying peptide, 30 °C, n = 3, read-out: KM (apparent)), the Km was determined as 44.8 ± 5.7 µM. For the same molecule, the “affinity for the peptide substrate, OST6 compared with OST3 complex, in words” value at OST6 complex [2] (100 μM LLO C20) is “similar”. Besides, the “peptide turnover rate of OST6 complex compared with OST3 complex” value on OST6 complex [2] (100 μM LLO C20, TAMRA-YANATS varied) was “reduced six times”. For the same molecule, the “OST6 complex activity compared with OST3 complex, in words” value at OST6 complex [2] is given as “drastically reduced”.

For the origin of these results see article PMC8191290, “Substrate specificities and reaction kinetics of the yeast oligosaccharyltransferase isoforms” (The Journal of Biological Chemistry, 2021).
